Reference: patent US20110257186A1, “COMPOSITIONS AND METHODS FOR TREATING VISUAL DISORDERS” (priority 2010, published 2011)
“Also recorded” adds a separate entry of the source.

Tested on: rat visual cortex
Assay: LTP in visual cortex slice
Conditions: rat primary visual cortex brain slices; fEPSP amplitude after theta burst stimulation; drug infused 20 minutes before LTP induction
From the text: The effect of the Ampakine, i.e. benzo[1,2,5]oxadiazol-5-yl-piperidin-1-yl-methanone, in the visual cortex was investigated using brain slices prepared from primary visual cortex to determine if this compound facilitates the induction of long-term potentiation (LTP). LTP is a well established cellular model for synaptic plasticity and the encoding of information. The visual cortex is one synapse removed from the eye and integrates visual signals generated by the retina. It is thus essential for decoding, processing and transforming visual inputs originating in the eye, and proper visual cortical function is necessary for normal vision.
Following decapitation of the anesthetized rat, the brain was rapidly removed and immersed in ice-cold artificial cerebrospinal fluid (ACSF) containing (in mM) NaCl 124, KCl 3, KH2PO4 1.25, CaCl2 3.4, MgSO4 2.5, NaHCO3 26, and D-glucose 10. A block of visual cortex was created by removing the frontal ⅔ portion of the brain and the cerebellum. […] This is repeated 2 additional times with a 1 minute inter-train interval, and the level of LTP was recorded for at least 30 min. Changes in amplitude of the synaptic response were used to measure the extent of LTP, since the amplitude was determined to be the more consistent parameter than the slope of the response. […] LTP was recorded for at least 30 min after induction.

`O=C(c1ccc2nonc2c1)N1CCCCC1` [benzo[1,2,5]oxadiazol-5-yl-piperidin-1-yl-methanone] was tested, and the “enhancement of visual cortex long-term potentiation (LTP)” value was “dose-dependent facilitation of long-term potentiation in rat visual cortex; also recorded: marked and dose-dependent enhancement of visual cortex LTP”.
